Patent US20260048046A1, “METHOD FOR IMPROVING GROWTH PERFORMANCE IN FEEDLOT CATTLE” (Elanco US Inc., priority 2022, published 2026)

Columns and labels:
beef steers [1] = assay: Lubabegron removal period study: animal mobility at harvest; format: in vivo, cattle; settings: for Mobility Score 1, number of animals / Mobility Score 2, number of animals / Mobility Score 3, number of animals / Mobility Score 4, number of animals: Lubabegron 3.5 mg/kg, in lairage at harvest
Experimental: (§1) Seven hundred English x Continental cross steers (initial BW=531±8.8 kg) were used in a randomized complete block design with seven treatments. Pen served as the experimental unit. […] Animals were managed as two-time replications with each replication containing five blocks (7 pens/block and 10 steers/pen). All ten blocks started and ended within 48 hours of each other. Cattle were weighed by pen using a 45,000-kg capacity pen scale (Model WI-130, Avery Weigh-Tronix LLC, Fairmont, MN; 3.66 m×21.34 m). All treatments were on feed for 71 d with harvest scheduled for 72 d. Because of an impending weather event, cattle were weighed to obtain a final BW one d early. Cattle were placed on their respective ration for the additional d and then shipped to the harvest facility the following morning.
(§2) 657 head were transported to a harvest facility approximately 495 km from the research facility. Animals were scored for animal mobility using the North American Meat Institute (NAMI, 2015) scoring scale described by Edwards-Callaway et al., (2017) while in lairage. […] Experienced staff collected an ear tag number, plant identification (ID), and carcass sequence and applied a unique carcass ID. Data collected on the kill floor included HCW, instances of excessive trim (>approximately 9 kg), and prevalence of liver abscess (Brown et al., 1975). Other carcass measures were obtained via instrument grading.
(§3) Continuous variables were analyzed using the Mixed procedure of SAS (version 9.4; SAS Institute, Cary, NC). Block served as a random effect whereas treatment was fixed. Initial body weight was used to describe the uniformity of cattle randomized to treatment and used as a covariate when appropriate. Data were calculated with deads and removals excluded. Linear and quadratic effects of lubabegron removal were conducted as were individual comparisons for duration of removal (i.e., 0 vs 2 d; 0 vs 4 d, 0 vs 6 d; 0 vs 8 d and 0 vs 16 d). Fisher's Exact test was evaluated on mobility scores 1 and 2. No test was conducted on mobility scores of 3 or 4 because no scores were reported. Simple means and standard deviation of the tissues collected for the 5 animals were calculated.

beef cattle = assay: 91-d study: Warner-Bratzler shear force of striploin steaks; format: in vivo; settings: 91-d treatment, LS mean, shear force after 14-d aging
Experimental: Following chill, striploins (LM) were collected from three randomly selected cattle/CPE and shipped to the University of Illinois Meat Science Laboratory for Warner-Bratzler shear force (WBSF) determination. At the laboratory, the anterior end of the striploin was fabricated into 2.54-cm steaks, vacuum packaged, and aged at 4° C. until 14-d postmortem. Steaks were frozen after aging, and then thawed at 4° C. for 24 h before being cooked on a Farberware Open Hearth electric broiler (Farberware, Bronx, NY). Copper-constantan Type-T thermocouples (Omega Engineering. Stamford, CT) connected to a digital scanning thermometer (Barnant Co., Barington, IL) were used to monitor internal temperature, and each steak was flipped a single time when the internal temperature reached 35° C. The steaks were removed from the grill when a temperature of 70° C. was achieved and cooled to ˜25° C. before six cores (1.25 cm diameter) were removed parallel to muscle fiber orientation. Cores were sheared perpendicular to the muscle fibers using a Texture Analyzer TA.HD Plus (Stable Microsystems, Godalming. UK) equipped with a WBSF attachment, and the peak WBSF measurement was averaged over all 6 cores to obtain a single shear force measurement (kg of force) for each steak.

beef steers [2] = assay: Lubabegron removal period study: carcass measures; format: in vivo, cattle; settings: for Calculated YG / Ribeye Area / HCW / Marbling / Dressing: Lubabegron 3.5 mg/kg DM fed 56 d; for HCW: steers; for Marbling: 500 = Small; for Dressing: final liveweight with 4% shrink
Experimental: This experiment was conducted to evaluate the effect of removing lubabegron from feed for increasing intervals prior to slaughter on growth performance of steers.
as §1, §2, §3

**Q.** Which “Animal mobility when lubabegron was fed” value (beef steers [1]; 3.5 mg/kg DM vs non-treated, P<0.25) does the source give for `CC(C)(Cc1ccc(Oc2ncccc2C#N)cc1)NC[C@H](O)COc1ccccc1-c1cccs1` [LUB, 2-{4-[2-({(2S)-2-Hydroxy-3-[2-(2-thienyl)phenoxy]propyl}amino)-2-methylpropyl]phenoxy}nicotinonitrile] here?
**A.** No differences

**Q.** And the “Mobility Score 1, number of animals” value (beef steers [1]; removal duration 0 d)?
**A.** 92 n

**Q.** And the “Mobility Score 2, number of animals” value (beef steers [1]; removal duration 0 d)?
**A.** 3 n

**Q.** And the “Mobility Score 3, number of animals” value (beef steers [1]; removal duration 0 d)?
**A.** 0 n

**Q.** And the “Mobility Score 4, number of animals” value (beef steers [1]; removal duration 0 d)?
**A.** 0 n

**Q.** And the “Mobility Score 1, number of animals” value (beef steers [1]; removal duration 2 d)?
**A.** 95 n

**Q.** And the “Mobility Score 2, number of animals” value (beef steers [1]; removal duration 2 d)?
**A.** 0 n

**Q.** And the “Mobility Score 3, number of animals” value (beef steers [1]; removal duration 2 d)?
**A.** 0 n

**Q.** And the “Mobility Score 4, number of animals” value (beef steers [1]; removal duration 2 d)?
**A.** 0 n

**Q.** What about the “Mobility Score 1, number of animals” value (beef steers [1]; removal duration 4 d) of the same compound?
**A.** 91 n

**Q.** And the “Mobility Score 2, number of animals” value (beef steers [1]; removal duration 4 d)?
**A.** 2 n

**Q.** What about the “Mobility Score 3, number of animals” value (beef steers [1]; removal duration 4 d) of the same compound?
**A.** 0 n

**Q.** What about the “Mobility Score 4, number of animals” value (beef steers [1]; removal duration 4 d) of the same compound?
**A.** 0 n

**Q.** What about the “Mobility Score 1, number of animals” value (beef steers [1]; removal duration 6 d) of the same compound?
**A.** 89 n

**Q.** What about the “Mobility Score 2, number of animals” value (beef steers [1]; removal duration 6 d) of the same compound?
**A.** 4 n

**Q.** And the “Mobility Score 3, number of animals” value (beef steers [1]; removal duration 6 d)?
**A.** 0 n

**Q.** What about the “Mobility Score 4, number of animals” value (beef steers [1]; removal duration 6 d) of the same compound?
**A.** 0 n

**Q.** What about the “Mobility Score 1, number of animals” value (beef steers [1]; removal duration 8 d) of the same compound?
**A.** 87 n

**Q.** And the “Mobility Score 2, number of animals” value (beef steers [1]; removal duration 8 d)?
**A.** 4 n

**Q.** What about the “Mobility Score 3, number of animals” value (beef steers [1]; removal duration 8 d) of the same compound?
**A.** 0 n

**Q.** What about the “Mobility Score 4, number of animals” value (beef steers [1]; removal duration 8 d) of the same compound?
**A.** 0 n

**Q.** And the “Mobility Score 1, number of animals” value (beef steers [1]; removal duration 16 d)?
**A.** 90 n

**Q.** What about the “Mobility Score 2, number of animals” value (beef steers [1]; removal duration 16 d) of the same compound?
**A.** 5 n

**Q.** What about the “Mobility Score 3, number of animals” value (beef steers [1]; removal duration 16 d) of the same compound?
**A.** 0 n

**Q.** And the “Mobility Score 4, number of animals” value (beef steers [1]; removal duration 16 d)?
**A.** 0 n

**Q.** And the “Animal mobility with increased duration of removal” value (beef steers [1]; lubabegron 3.5 mg/kg DM, removal 0 to 16 d, P<0.06)?
**A.** tended (P<0.06) to be reduced

**Q.** What about the 14-dWBSP (beef cattle; LUB 1.38 mg·kg^−1 DM) of the same compound?
**A.** 2.79 kg

**Q.** What about the 14-dWBSP (beef cattle; LUB 5.5 mg·kg^−1 DM) of the same compound?
**A.** 2.92 kg

**Q.** And the 14-dWBSP (beef cattle; LUB 22.0 mg·kg^−1 DM)?
**A.** 2.75 kg

**Q.** And the “Calculated YG” value (beef steers [2]; removal duration 0 d)?
**A.** 3.08

**Q.** What about the “Ribeye Area” value (beef steers [2]; removal duration 0 d) of the same compound?
**A.** 91.0 cm^2

**Q.** What about the HCW (beef steers [2]; removal duration 0 d) of the same compound?
**A.** 409 kg

**Q.** And the Marbling (beef steers [2]; removal duration 0 d)?
**A.** 482

**Q.** What about the Dressing (beef steers [2]; removal duration 0 d) of the same compound?
**A.** 62.7%

**Q.** What about the “Calculated YG” value (beef steers [2]; removal duration 2 d) of the same compound?
**A.** 3.20

**Q.** What about the “Ribeye Area” value (beef steers [2]; removal duration 2 d) of the same compound?
**A.** 90.3 cm^2

**Q.** What about the HCW (beef steers [2]; removal duration 2 d) of the same compound?
**A.** 411 kg

**Q.** What about the Marbling (beef steers [2]; removal duration 2 d) of the same compound?
**A.** 491

**Q.** And the Dressing (beef steers [2]; removal duration 2 d)?
**A.** 62.7%

**Q.** And the “Calculated YG” value (beef steers [2]; removal duration 4 d)?
**A.** 3.21

**Q.** What about the “Ribeye Area” value (beef steers [2]; removal duration 4 d) of the same compound?
**A.** 90.3 cm^2

**Q.** What about the HCW (beef steers [2]; removal duration 4 d) of the same compound?
**A.** 413 kg

**Q.** What about the Marbling (beef steers [2]; removal duration 4 d) of the same compound?
**A.** 488

**Q.** And the Dressing (beef steers [2]; removal duration 4 d)?
**A.** 62.8%

**Q.** And the “Calculated YG” value (beef steers [2]; removal duration 6 d)?
**A.** 3.06

**Q.** What about the “Ribeye Area” value (beef steers [2]; removal duration 6 d) of the same compound?
**A.** 91.6 cm^2

**Q.** What about the HCW (beef steers [2]; removal duration 6 d) of the same compound?
**A.** 410 kg

**Q.** What about the Marbling (beef steers [2]; removal duration 6 d) of the same compound?
**A.** 483

**Q.** And the Dressing (beef steers [2]; removal duration 6 d)?
**A.** 62.9%

**Q.** And the “Calculated YG” value (beef steers [2]; removal duration 8 d)?
**A.** 3.14

**Q.** And the “Ribeye Area” value (beef steers [2]; removal duration 8 d)?
**A.** 90.3 cm^2

**Q.** And the HCW (beef steers [2]; removal duration 8 d)?
**A.** 413 kg

**Q.** And the Marbling (beef steers [2]; removal duration 8 d)?
**A.** 483

**Q.** And the Dressing (beef steers [2]; removal duration 8 d)?
**A.** 63.0%

**Q.** And the “Calculated YG” value (beef steers [2]; removal duration 16 d)?
**A.** 3.18

**Q.** What about the “Ribeye Area” value (beef steers [2]; removal duration 16 d) of the same compound?
**A.** 89.0 cm^2

**Q.** And the Marbling (beef steers [2]; removal duration 16 d)?
**A.** 484

**Q.** And the Dressing (beef steers [2]; removal duration 16 d)?
**A.** 62.6%

**Q.** What about the “Effect of removal duration on any measured carcass parameter” value (beef steers [2]; lubabegron 3.5 mg/kg DM, removal 0 to 16 d, P>0.05) of the same compound?
**A.** no effect

**Q.** What about the “Calculated yield grade improvement vs non-treated group” value (beef steers [2]; lubabegron fed for 56 d with a 0 d removal) of the same compound?
**A.** 10.5%

**Q.** What about the “Effects on BW and HCW of duration of lubabegron removal” value (beef steers [2]; removal up to 16 d) of the same compound?
**A.** not affected
